From US10716807B2, “Method of treating relapsing-remitting multiple sclerosis using arsenic trioxide” (Medsenic, priority 2017, dated 2020)
Entries after “also recorded” stand apart in the source; their conditions may differ.

Columns and labels:
MOG35-55-induced EAE = test: MOG35-55-induced prophylactic/therapeutic EAE model; assay type: in vivo, C57BL/6 mice; settings: for EAE disease severity compared to the vehicle group / EAE onset compared to the vehicle group: started 7 days before EAE induction
Procedure: The study objective was to evaluate the effects of arsenic trioxide (1 mg/ml), administered i.v., QD, starting 7 days before EAE induction, on EAE development in the MOG35-55-induced prophylactic/therapeutic EAE model, known as the more robust and direct animal model to trigger and observe the autoimmune cascade involving the central nervous system and ensuing demyelination.
EAE was induced by MOG35-55/CFA immunization and pertussis toxin injection in C57BL/6 mice.
There were 2 experimental groups with 12 mice per group. Mice were treated prophylactically.
The study used a total of 24 female C57BL/6 mice (Taconic Farms, 10 weeks old).
EAE was induced in all mice as follows:
Day 0, Hour 0—Immunization with MOG35-55/CFA
Day 0, Hour 2—Injection of pertussis toxin
Day 1, Hour 0—2nd injection of pertussis toxin (24 hours after initial immunization)
Mice were injected subcutaneously at two sites in the back with the emulsion component (containing MOG35-55) of Hooke Kit™ […] Emulsion PTX, catalog number EK-2110 (Hooke Laboratories, Lawrence Mass.). One site of injection was in the area of upper back, approximately 1 cm caudal of the neck line. The second site was in the area of lower back, approximately 2 cm cranial of the base of the tail. The injection volume was 0.1 mL at each site.
Within 2 hours of the injection of emulsion, and then again 24 hours after the injection of emulsion, the pertussis toxin component of the kit was administered intraperitoneally. The volume of each injection was 0.1 mL.
To optimize disease severity for this particular study, the pertussis toxin was administered at 165 ng/dose for the first injection and 154 ng/dose for the second injection.
There were 2 groups of 12 mice each.
Mice were assigned to groups 7 days before immunization (Day −7), balanced to achieve similar weight at the start of the study.
Treatment was according to Table 1 below.
Dosing of all mice was at the same time (+/−1 hour) on each day.
Dosing of all mice started on Day −7 (7 days before EAE induction) and continued until Day 27.
Group 2 was dosed at 2 mg/kg from Day −7 to Day −1, and at 3 mg/kg until Day 27.
Mice were scored for EAE and weighed until Day 35, the last day of the study.
Readouts were EAE scores and body weight at the end of the study.
Mice were scored daily from Day 7 after immunization until the end of the study, and body weight was measured three times/week (Monday, Wednesday and Friday), starting on Day −7.
Scoring was performed blind, by a person unaware of both treatment and of previous scores for each mouse.
EAE was scored on scale 0 to 5: • 0 No obvious changes in motor functions of the mouse in comparison to non-immunized mice. • When picked up by the tail, the tail has tension and is erect. Hind legs are usually spread apart. When the mouse is walking, there is no gait or head tilting. • 1 Limp tail. • When the mouse is picked up by the tail, instead of being erect, the whole tail drapes over finger. • 2 Limp tail and weakness of hind legs. • When mouse is picked up by tail, legs are not spread apart, but held closer together. When the mouse is observed walking, it has a clearly apparent wobbly walk. • 3 Limp tail and complete paralysis of hind legs (most common). • OR • Limp tail with paralysis of one front and one hind leg. • OR • ALL of: • Severe head tilting, • Walking only along the edges of the cage, • Pushing against the cage wall, • Spinning when picked up by the tail. • 4 Limp tail, complete hind leg and partial front leg paralysis. • Mouse is minimally moving around the cage but appears alert and feeding. • Usually, euthanasia is recommended after the mouse scores level 4 for 2 days. When the mouse is euthanized because of severe paralysis, score of 5 is entered for that mouse for the rest of the experiment. • 5 Complete hind and complete front leg paralysis, no movement around the cage. • OR • Mouse is spontaneously rolling in the cage. • OR • Mouse is found dead due to paralysis. […]

IL-6 = test: Cytokine production in spleen cell cultures after MOG35-55/CFA immunization (cytokine bead assay); assay type: in vivo, mice; settings: spleen cells collected 11 days after immunization, cultured 72 hours with MOG35-55 (0, 0.7, 2.2, 6.7 and 20.0 μg/mL); treatment from Day -16
Procedure: The objective of this study was to determine the effects of arsenic trioxide on cytokine production by T lymphocytes from draining lymph nodes and spleen after immunization with MOG35-55/CFA.
There were 2 experimental groups with 6 mice/group.
Treatment started on Day −16.
Mice were immunized with MOG35-55/CFA on Day 0.
Eleven days after immunization, mice were euthanized, spleens and lymph nodes collected and cell suspensions prepared. Cell suspensions were cultured for 3 days in the presence of multiple concentrations of MOG35-55. The culture supernatants were collected at the end of this 3-day culture period. The concentrations of 7 cytokines (IL-2, IL-4, IL-6, IL-10, IL-17A, TNF, and IFN-γ) were determined in the culture supernatants using Th1/Th2/Th17 cytokine bead assay (CBA) kit from Becton Dickinson.

[1] = 3 mg/kg, i.v., QD, listed as Arsenic trioxide
[2] = to Day 28 (end of treatment), 3 mg/kg, i.v., QD

Substance: arsenic trioxide
- Body weight compared to the vehicle treated controls (MOG35-55-induced EAE; 3 mg/kg, i.v., QD): higher body weight
- EAE disease severity compared to the vehicle group (MOG35-55-induced EAE; 3 mg/kg, i.v., QD): overall severity was lower; also recorded: reducing disease severity
- EAE onset compared to the vehicle group (MOG35-55-induced EAE; 3 mg/kg, i.v., QD): disease onset was postponed; also recorded: efficacious at postponing EAE onset
- EAE disease severity compared to the vehicle group (MOG35-55-induced EAE; [1]): reducing disease severity
- EAE onset compared to the vehicle group (MOG35-55-induced EAE; [1]): efficacious at postponing EAE onset
- Efficacy after the treatment was stopped (MOG35-55-induced EAE; 7 days after the treatment was stopped (Day 35)): efficacy was maintained 7 days after the treatment was stopped
- Day 27 % body weight +/- SD (MOG35-55-induced EAE; Day 27, 3 mg/kg, i.v., QD): 97.3 +/− 5.1%
- End % body weight +/- SD (MOG35-55-induced EAE; Day 35 (end of study), 3 mg/kg, i.v., QD): 93.2 +/− 6.4%
- Deaths in group (MOG35-55-induced EAE; group of 12 mice, 3 mg/kg, i.v., QD, death not from EAE nor from i.v. dosing complications): One mouse died
- EAE incidence (%) (MOG35-55-induced EAE; to Day 28 (end of treatment), 2 mg/kg Day -7 to -1, then 3 mg/kg to Day 27, i.v., QD): 100%
- Mean day of onset +/- SEM (sick mice) (MOG35-55-induced EAE; [2]): 17.5 ± 1.1 days
- Median day of onset (all mice) (MOG35-55-induced EAE; [2]): 17.0 days
- MMS +/- SD (mean maximum score) (MOG35-55-induced EAE; to Day 28 (end of treatment), EAE scale 0 to 5, 3 mg/kg, i.v., QD): 3.41 +/− 0.30
- IL-6 concentration in spleen cell cultures (IL-6): significant reduction of IL-6 concentration
